In patent US10072282B2, “Modulators for SIRT6 and assays for screening same” (Cornell University, priority 2010, dated 2018):

How the values were obtained:
PfSir2a = PfSir2a (Plasmodium falciparum, UniProt Q8IE47); experiment: Fluorogenic acyl peptide-AMC assay with PfSir2a; format: biochemical; conditions: AMC released by trypsin, fluorescence
Text: (§1) FIGS. 6A, 6B. Charts showing the difference between fluorogenic acetyl peptide-AMC substrate (A) and heptyl peptide-AMC substrate (B) detection ability of Sirt6 and PfSir2 activity.
(§2) With respect to the first reaction (deacylation by Sirt6, PfSir2a, or Sirt7), the pH for the reaction can be selected by taking the optimal pH of Sirt6, PfSir2a, or Sirt7 into consideration. The pH is typically adjusted to a pH of 6.0 to 8.5, or more particularly, a pH of 6.8 to 8.5. The reaction buffer preferably provides the above-mentioned pH. For example, Tris-HCl, HEPES-KOH, and other such buffers may be used in the instant method. More specifically, for example, 20 mM Tris-HCl having a pH of 7.4 can be used. Generally, NAD is a co-substrate required for Sirt6, PfSir2a, or Sirt7 functioning, and is typically used at about 0.5 mM concentration. Salts and preservatives are generally also included in the reaction solution. […]
(§3) For sirtuins with robust deacetylase activity, a fluorogenic assay has been used to detect the activity and screen for inhibitors/activators (FIG. 5, top). […] After a sirtuin removes the acetyl group, the AMC can be released by trysin, which produces a fluorescence signal. Thus, the presence of a compound that can change the activity of sirtuin being analyzed can be detected by monitoring the fluoroscence released in the reaction. […]

Sirt6 = Sirt6 (Homo sapiens, UniProt Q8N6T7); experiment: Fluorogenic acyl peptide-AMC assay with Sirt6; format: biochemical; conditions: AMC released by trypsin, fluorescence
Sequence of Sirt6 (Q8N6T7 whole entry): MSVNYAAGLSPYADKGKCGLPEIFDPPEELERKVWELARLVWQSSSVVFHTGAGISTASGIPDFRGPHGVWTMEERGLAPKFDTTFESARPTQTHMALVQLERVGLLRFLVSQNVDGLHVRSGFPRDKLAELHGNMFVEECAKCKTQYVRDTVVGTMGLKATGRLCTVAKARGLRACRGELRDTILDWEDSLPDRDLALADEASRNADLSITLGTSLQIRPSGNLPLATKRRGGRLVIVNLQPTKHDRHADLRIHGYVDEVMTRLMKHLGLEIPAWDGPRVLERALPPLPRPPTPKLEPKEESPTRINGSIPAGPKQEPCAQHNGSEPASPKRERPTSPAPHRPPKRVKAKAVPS
Text: as §1, §2, §3

Sequence of PfSir2a (Q8IE47 whole entry): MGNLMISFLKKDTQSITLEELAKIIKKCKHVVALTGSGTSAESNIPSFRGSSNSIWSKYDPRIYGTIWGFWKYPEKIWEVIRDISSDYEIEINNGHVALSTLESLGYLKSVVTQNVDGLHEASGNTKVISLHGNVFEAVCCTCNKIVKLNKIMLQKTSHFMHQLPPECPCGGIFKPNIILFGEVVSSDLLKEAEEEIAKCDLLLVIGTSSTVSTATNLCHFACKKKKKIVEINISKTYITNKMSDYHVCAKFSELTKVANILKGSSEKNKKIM

Substance | detection of PfSir2a activity with peptide-AMC substrate (PfSir2a) | detection of Sirt6 activity with peptide-AMC substrate (Sirt6)
ISGASE(heptanoyl-K)-AMC peptide [heptanoyl peptide-AMC] | can be used to detect the activity of Sirt6 and PfSir2a | can be used to detect the activity of Sirt6 and PfSir2a
ISGASE(acetyl-K)-AMC peptide [acetyl peptide-AMC] | not detectable | not detectable
